Experiments:
[1] = test system: endothelium of reconstructed corneas (Na/K ATPase); assay: Endothelial function test: corneal thickness by Optical Coherence Tomography after ouabain; format: cell-based, human; conditions: 10^-4M ouabain in DMEM, 2 hours, silicone oil on epithelium; one set of corneas, preliminary
From the text: Ouabain, a cardiac glycoside, inhibits Na/K ATPase, disrupting corneal endothelial functioning. When this is applied to the cornea, the endothelium looses its pumping function, and without this, the cornea will swell (Watsky et al. 1990).
1. Corneas were reconstructed in 30 mm inserts. In this experiment, we have contructed them with the epithelium down.
2. A whole cornea was immersed in DMEM only.
3. At the start of the experiment, medium outside insert was removed and replaced with silicone oil. This essentially seals off the epithelium. Corneal thickness was measured using Optical Coherence Tomography (OCT) (Humphrey Instruments, Carl Zeiss, Inc.). Four readings were taken from each cornea and the average was taken.
4. DMEM within the control insert was replaced with 1 ml of fresh DMEM only. Experimental cornea was treated with 10^-4M ouabain in DMEM.
5. After 2 hours, the corneal thicknesses were measured by OCT.
6. Changes in corneal thickness (if any) was calculated.

[2] = test system: FFA-activated K^+ current of cultured human corneal epithelial cells; assay: Perforated-patch whole-cell patch clamp, pharmacological activators (FFA-activated current); format: cell-based; conditions: for effect on the FFA-activated current: 3 mM TEA or 5 mM Ba^+2
Experimental: (§1) Single cells for patch clamp analysis of transfected and non-transfected cells were obtained by washing cultured cells free of culture medium using PBS containing 0.53 mM EDTA and then incubating with Ca^+2 and Mg^+2 free Hanks' balanced salt solution (GIBCO) containing 0.05% trypsin and 0.53 mM EDTA for 2 minutes at 37° C. in a 5% CO2 incubator. Loose cells were aspirated into a Pasteur pipette and transferred into a conical tube containing Media 199 (Sigma, St. Louis, Mo.) supplemented with 10% FCS (Sigma, St. Louis, Mo.). Isolated cells were transferred to an inverted microscope mounted with an external stage, placed into an acrylic chamber filled with Ringer's solution, and allowed to settle and attach to the glass bottom.
Macroscopic currents in single cells were examined using the perforated-patch configuration of the whole-cell patch-clamp technique with amphotericin B as the perforating agent. The composition of the patch pipette in millimolar was 145 potassium methanesulfonate, 2.5 NaCl, 2.5 CaCl2, 5 HEPES, and […] amphotericin B. Patch pipettes were fabricated from KG-12 capillary glass, coated with Sylgard (Dow Corning, Midland, Mich.) and fire polished. Currents were recorded at room temperature using a patch-clamp amplifier operated by Gateway 486DX2 computer (Gateway 2000, Sioux City, S. Dak.) loaded with pCLAMP software (Axon 200A, Axon Instruments, Foster City, Calif.) for the generation of voltage-clamp protocols. Current recordings were capacity compensated using the amplifier circuitry, sampled between 2 to 5 kHz, filtered between 1 to 2 kHz, and subsequently analyzed with the software program. Voltage-clamp protocols were repeated at least three times to obtain the average current response to a voltage pulse. Current voltage (I-V) relationships were corrected for the junction potential generated by the pipette solution and the amphotericin B-induced Donnan potential by subtracting the difference between the reversal potential of tail currents measured in symmetrical K^+ solutions and the 0 mV potential.
The tests of examples 1.1, 1.2, and 1.3 were repeated following the addition of 100 μM flufenamic acid (FFA) to the NaCl Ringer's bath.
To determine the ion selectivity of this TEA-sensitive FFA-activated current, cultured human corneal epithelial cells were bathed in NaCl Ringer's solution with 100 μM FFA and a family of instantaneous tail currents was generated. The same cells were then bathed in NaCl Ringer's solution with 100 μM FFA and 3 mM TEA and a second family of instantaneous tail currents was generated. An instantaneous tail I-V plot was obtained by digitally subtracting the instantaneous tail responses determined for the same cell bathed with FFA with and without TEA.

reconstructed corneas [3] = assay: Responses of reconstructed corneas to aqueous test chemicals (wound, corneal transparency); format: cell-based, human; conditions: 100 μl centrally for 10 min, washed off with saline, re-cultured 3 days; 10% SDS, 0.01% benzalkonium chloride solution
Experimental: Each cornea was exposed centrally to 100 μl of the test chemical for 10 min, after which the chemical was washed off with saline and the corneas were re-cultured for a further 3 days. The saline-treated cornea served as the control.

reconstructed corneas [4] = assay: Live-dead staining of reconstructed corneas after chemical exposure; format: cell-based, human; conditions: SDS; 0.01% benzalkonium chloride solution
From the text: Live cells are green, while dying or dead cells are orange-red. […] C.

[5] = test system: nonselective cation current of human corneal epithelial cells; assay: Perforated-patch whole-cell patch clamp, nonselective cation current; format: cell-based; conditions: 1 mM external
Experimental: as §1
Macroscopic currents in single cells were examined using the perforated-patch configuration of the whole-cell patch-clamp technique with amphotericin B as the perforating agent. […] Currents were recorded at room temperature using a patch-clamp amplifier operated by Gateway 486DX2 computer (Gateway 2000, Sioux City, S. Dak.) loaded with pCLAMP software (Axon 200A, Axon Instruments, Foster City, Calif.) for the generation of voltage-clamp protocols. Current recordings were capacity compensated using the amplifier circuitry, sampled between 2 to 5 kHz, filtered between 1 to 2 kHz, and subsequently analyzed with the software program. […]

[6] = test system: primary HUVECs (Normal Cells); assay: Response to growth factors, primary HUVECs in matrix; format: cell-based, human
Experimental: Human umbilical vein endothelial cells (HUVECs) were harvested from umbilical cord veins as previously described (Sirois E, et al., Int. J. Artificial Organs 16:609-619, 1993). They were grown on a gelatin-coated dish until confluence in Medium 199 supplemented with 20% FBS, 90 mg/l of heparin, 2 mM of L-glutamine and 100 μg/ml endothelial cell growth supplement (ECGS). Penicillin (100 I.U./ml), streptomycin sulfate (100 μg/ml) and amphotericin B (0.25 μg/ml) were present in medium. After the first passage, FBS concentration was reduced to 10% and ECGS to 20 μg/ml. Cells were subcultured at a ratio of 1:3 or 1:4 and HUVECs from the 2nd to 4th passages were used in our bioassays. Endothelial cell phenotype was verified by the dii-acetylated low-density lipoprotein (diI-Ac-LDL) uptake and positivity to factor VIII-related antigen antibodies by immunocytochemistry. Cultures were incubated in 5% CO2 atmosphere at 37° C. in saturated humidity. The medium was changed every other day.
The virally transfected HUVECs were tested for functionality by their ability to undergo angiogenesis in a three-dimensional fibrin-containing matrix (FIG. 16); and their ability to sequester acetylated low density lipoprotein labelled with 1,1′-dioctadecyl-3,3,3′,3′-tetramethylindocarbocyanine perchlorate (DiI-Ac-LDL; Biomed. Technol. Inc., Stoughton, Mass.), (FIGS. 17 and 18). […]

[7] = test system: immortalized HUVECs (Cell Lines); assay: Response to growth factors, immortalized HUVECs in matrix; format: cell-based, human
Experimental: For transfection, primary HUVECs were seeded onto uncoated 60 mm tissue culture plates and cultured until 60-70% confluent. They were then immortalized by infection with the HPV16 E6 and E7 genes and selected by G418 resistance as described above.
The virally transfected HUVECs were tested for functionality by their ability to undergo angiogenesis in a three-dimensional fibrin-containing matrix (FIG. 16); and their ability to sequester acetylated low density lipoprotein labelled with 1,1′-dioctadecyl-3,3,3′,3′-tetramethylindocarbocyanine perchlorate (DiI-Ac-LDL; Biomed. Technol. Inc., Stoughton, Mass.), (FIGS. 17 and 18). Immortalized HUVECs can also be maintained in the serum-free medium. As with corneal cell lines, other genes can also be introduced into HUVEC lines. For example, GFP has been introduced by transfection.
During the assays in matrices, cells were grown in serum (10%) supplemented-medium 199 containing heparin, L-glutamine or modified glutamine such as L-Alanyl-L-Glutamine (GlutaMAX™, GIBCO) and antibiotics at the same concentration as described above, without ECGS, but with 50 ng/ml of FGF-2. Serum-free medium has also been used.

## C[C@@H]1O[C@@H](O[C@H]2C[C@@H](O)[C@]3(CO)[C@H]4[C@H](O)C[C@]5(C)[C@@H](C6=CC(=O)OC6)CC[C@]5(O)[C@@H]4CC[C@]3(O)C2)[C@H](O)[C@H](O)[C@H]1O [ouabain, Ouabain]
[1]
  change in corneal thickness (swelling): 24%

## O=C(O)c1ccccc1Nc1cccc(C(F)(F)F)c1 [FFA, flufenamic acid]
[2]
  voltages at which a second FFA-stimulated K^+ current is active: greater than +10 mV
[2]; 100 μM FFA
  activation voltage of the FFA-stimulated current (I-V plot): about −60 mV
[2]; 100 μM FFA in NaCl Ringer's bath, versus cells not exposed
  increase in the maximum outward current: more than 10 fold
[2]; 100 μM FFA with and without 3 mM TEA, digital subtraction of instantaneous tail currents
  Erev for the TEA-sensitive FFA-activated current: about −80 mV
[2]; 100 μM FFA, same cell
  reversibility of the FFA response: reversible and repeatable

## benzalkonium chloride
Reconstructed corneas [3]
  wound / change of corneal transparency: caused wounds to the centre of the cornea
Reconstructed corneas [4]
  live-dead staining, epithelial cells: some dead and dying cells but mostly live cells
  live-dead staining, stromal cells: mostly alive
  penetration into the stromal compartment: little/no penetration of solution into the stromal compartment

## [Gd] [gadolinium]
[5]
  sensitivity of the nonselective cation current: not sensitive

## FGF-2: basic fibroblast growth factor
[6]; FGF-2 (50 ng/ml)
  Response to Growth Factors, Normal Cells: Angiogenesis
[6]; FGF-2, concentration not given
  Response to Growth Factors, Normal Cells: Cell death
[7]; FGF-2 (50 ng/ml)
  Response to Growth Factors, Cell Lines: Angiogenesis
[7]; FGF-2, concentration not given
  Response to Growth Factors, Cell Lines: Cell death

## CC[N+](CC)(CC)CC [TEA, tetraethylammonium]
[2]; 100 μM FFA
  effect on the FFA-activated current: blocked

## [Ba+2] [barium]
[5]
  sensitivity of the nonselective cation current: not sensitive
[2]; 100 μM FFA
  effect on the FFA-activated current: blocked

From US6645715B1, “Artificial cornea” (University of Ottawa, priority 1998, dated 2003)
